Values after ≈ are worked out from the molar mass of the structure shown.
Key:
HDAC activity = assay: H2O2-induced reduction of HDAC activity in PMA-differentiated U937 cells; type: cell-based, human; details: for restoration of H2O2-reduced HDAC activity (%): test concentration not given, bracketed second value not explained
Procedure: In cell HDAC assay. Cells are incubated with Fluor de Lys™ substrate for 1 hr before lyses. Total HDAC activity from whole cell extracts is measured using the HDAC Fluorimetric Assay/Drug Discovery Kit (BIOMOL® International, Inc., Plymouth Meeting, Pa.).
HDAC expression: In cell HDAC activity assay: U937 is differentiated to macrophage type cells by PMA for 3 days. HDAC fluorescent substrate (Biomol) is added before exposure of oxidative stress (H2O2, 200 μM) or Tobacco smoke conditioned medium for 4 hrs. HDAC activity is measured (Biomol kit). Compounds at different concentrations are treated 20 min before oxidative stress treatment.
PMA-differentiated macrophage-like cells are pretreated with compounds described herein for 20 min. After H2O2 (200 μM) stimulation for 4 hrs, HDAC activity is assayed. Data are expressed as fold changes against positive control treated with H2O2 only. Values represent means of four experiments±SEM.

IL-8 = assay: LPS-induced IL-8 release in PMA-differentiated U937 cells (ELISA); type: cell-based, human; details: for IL-8 inhibition (%): test concentration not given
Procedure: (§1) Cytokine ELISA. LPS-induced IL-8, TNFα concentrations and TNFα-induced IL-8 concentrations are determined by sandwich ELISA according to the manufacturer's instructions (R&D Systems Europe). IC50 values for dexamethasone on IL-8 production are calculated using the computer program Prism 4.0 (GraphPad Software Inc., San Diego, Calif.) as a marker for steroid sensitivity.
(§2) Effects of compounds on LPS-induced IL-8 and TNFα release in PMA-differentiated U937 cells. PMA-differentiated macrophage-like cells are pretreated with compounds described herein for 1 hr, followed by LPS (100 ng/ml) stimulation for 4 hrs. LPS-induced IL-8 and TNFα release is evaluated by ELISA. Values represent means of three experiments±SEM.

TNFα = assay: LPS-induced TNFα release in PMA-differentiated U937 cells (ELISA); type: cell-based, human; details: for TNFα inhibition (%): test concentration not given
Procedure: as §1, §2

MMP9 = assay: PMA-induced MMP9 expression in U937 cells (gelatin zymography); type: cell-based, human; details: test concentration not given; bracketed second value not explained
Procedure: Zymography. MMP9 enzyme activity is measured by gelatin zymography. 5 μl of supernatants were diluted with 5 μl Laemli sample buffer (Bio-Rad) and are loaded on a Novex® 10% Zymogram (Gelatin) gel (Invitrogen). After electrophoresis (90 min, 125 V, 35 mA, 5 W) gels are incubated with 1× Novex® zymogram renaturing buffer (Invitrogen) for 30 min at room temperature with gentle agitation. Gels are then rinsed in 1× Novex® zymogram developing buffer (Invitrogen) for 30 min at room temperature with gentle agitation prior to overnight incubation in the developing buffer at 37° C. After incubation the gels are stained using the colloidal blue staining kit (Invitrogen) with buffer containing 20% methanol and 70% distilled water to visualize the zymogen bands. Relevant band intensities are quantified by densitometric analysis using the UVP GelDoc-It system.
Effects of compounds on PMA-induced MMP9 expression in U937 cells. U937 cells are pretreated with compounds described herein for 1 hr, followed by PMA (50 ng/ml) treatment for 48 hrs. After 48 hrs supernatants are collected for zymography. MMP9 enzyme activity is measured by gelatin zymography. Data are expressed as fold changes against positive control treated with PMA only. Values represent means of three experiments±SEM.

[1] = type: cell-based; details: test concentration not given
Procedure: The human monocytic cell line U937 and the human type II alveolar epithelial carcinoma cell line A549 were obtained from the American Type Culture Collection (ATCC, Rockville, Md.). PBMCs from COPD patients were obtained in Brompton hospital and separated by AccuSPIN (Sigma-Aldrich, Poole, UK). Cells were cultured in complete growth medium (Sigma-Aldrich) (RPMI 1640 for U937, PBMCs, and Dulbecco's modified essential medium (DMEM) for A549) supplemented with 10% fetal bovine serum (FBS) and 1% L-glutamine at 37° C. in a humidified atmosphere with 5% CO2. U937 were differentiated into an adherent macrophage-like morphology by exposure to PMA (50 or 100 ng/ml) for 48 hrs in complete growth medium. Cell viability was assessed microscopically by trypan blue staining. Cell toxicity was determined by MTT assay as needed. This study was approved by the ethics committee of the Royal Brompton Hospitals, and all subjects gave written informed consent.

H. influenzae ATCC 49247 = assay: MIC; type: cell-based
K. pneumonia 13883 = assay: MIC; type: cell-based; details: in µg/mL
E. coli ATCC 25922 = assay: MIC; type: cell-based; details: in µg/mL
[2] = test system: S. typhimurium ATCC 14028; assay: MIC; type: cell-based; details: in µg/mL
S. pneumoniae ATCC 49619 = assay: MIC; type: cell-based
[3] = test system: S. aureus ATCC 29213 (MSSA) MLS-S; assay: MIC; type: cell-based
S. aureus MRSA 33591 = assay: MIC; type: cell-based
S. pyogenes ATCC 19615 = assay: MIC; type: cell-based; details: in µg/mL
P. aeruginosa ATCC 27853 = assay: MIC; type: cell-based
[4] = test system: N. gonorrhoeae ATCC 49226; assay: MIC; type: cell-based; design: unit not given beside the values
E. faecium ATCC 19434 = assay: MIC; type: cell-based
Akt = assay: H2O2-induced phosphorylation of Akt in PMA-differentiated U937 cells (western blot); type: cell-based, human; details: PMA-differentiated U937; H2O2 1 mM 30 min
Procedure: Cell Lysis and Western Blotting. Whole cell protein extracts are prepared using modified RIPA buffer (50 mM Tris HCL pH 7.4, 0.5% NP-40, 0.25% Na-deoxycholate, 150 mM NaCl with freshly added complete protease (Roche). Phosphatase inhibitor (Active Motif) is also added when required. Protein concentration is determined using the Bio-Rad Protein Assay (Bio-Rad). Proteins are separated by SDS-PAGE under denaturing conditions, and electrotransferred to a nitrocellulose membrane (Amersham Biosciences, Amersham, U.K.) (Western blotting). The membranes are blocked in TBS containing 0.05% Tween 20 and 5% non-fat dried milk, and then incubated with anti-pAkt or Akt antibody followed by an horse radish peroxidase-conjugated secondary antibody (Dako UK Ltd., Ely, UK). Bound antibodies are visualized by ECL Plus (GE Healthcare UK Ltd., Little Chalfont, UK). The band density is calculated by densitometry (UVP Bioimaging Systems, Cambridge, UK) using Labworks software (Ultra-Violet Products, Cambridge, UK).
Effects of compounds on H2O2-induced phosphorylation of Akt in PMA-differentiated U937 cells. PMA-differentiated macrophage-like cells are pretreated with compounds described herein for 20 min. After H2O2 (1 mM) stimulation for 30 min, cells are lysed. Phosphorylation levels of Akt are measured by western blot. Data are calculated relative to total protein, and expressed as fold changes against positive control treated with H2O2 only. Values represent means of three or four experiments±SEM.

Row | Structure (SMILES) | restoration of H2O2-reduced HDAC activity (%) (HDAC activity) | IL-8 inhibition (%) (IL-8) | TNFα inhibition (%) (TNFα) | MMP9 inhibition (%) (MMP9) | Cell Toxicity (% cell death) [1] [%] | MIC H. influenzae ATCC 49247 (H. influenzae ATCC 49247) [µg/mL] | MIC K. pneumonia 13883 (K. pneumonia 13883) | MIC E. coli ATCC 25922 (E. coli ATCC 25922) | MIC S. typhimurium ATCC 14028 [2] | MIC S. pneumoniae ATCC 49619 (S. pneumoniae ATCC 49619) [µg/mL] | MIC S. aureus ATCC 29213 (MSSA) MLS-S [3] [µg/mL] | MIC S. aureus MRSA 33591 (S. aureus MRSA 33591) [µg/mL] | MIC S. pyogenes ATCC 19615 (S. pyogenes ATCC 19615) | MIC P. aeruginosa ATCC 27853 (P. aeruginosa ATCC 27853) [µg/mL] | MIC N. gonorrhoeae ATCC 49226 [4] | MIC E. faecium ATCC 19434 (E. faecium ATCC 19434) [µg/mL] | other results
1 | CCC1OC(=O)C(C)C(OC2CC(C)(OC)C(OC(C)=O)C(C)O2)C(C)C(OC2OC(C)CC(N(C)C)C2O)C(C)(OC)CC(C)C(=O)C(C)C2N(CCCCn3cc(CN(C)C)nn3)C(=O)OC12C (centres unmarked) [Example 24] | 85% | 60 | 6 | 11% | −3 | 64 (≈ 64.3 µM) |  |  |  |  |  |  |  |  |  |  | 
2 | CCC1OC(=O)C(C)C(OC2CC(C)(OC)C(OC(C)=O)C(C)O2)C(C)C(OC2OC(C)CC(N(C)C)C2O)C(C)(OC)CC(C)C(=O)C(C)C2N(CCCCn3cc(CO)nn3)C(=O)OC12C (centres unmarked) [Example 25] | 72 (63) % | 26 | 15 | 10% | −8 | 4 (≈ 4.13 µM) |  |  |  |  |  |  |  |  |  |  | 
3 | CC[C@H]1OC(=O)[C@H](C)C(=O)[C@H](C)[C@@H](O[C@@H]2O[C@H](C)C[C@H](N(C)C)[C@H]2O)[C@@](C)(OC)C[C@@H](C)CN(C(=O)CCCn2cc(-c3ccc(Br)cc3)nn2)[C@H](C)[C@@H](O)[C@]1(C)O [Example 41] | 14% | 54 | 45 | 39 (41) % | 8 | > 64 | >64 | >64 | >64 | 32 (≈ 36.3 µM) | 64 (≈ 72.7 µM) | > 64 | 64 | > 64 | 64 | 64 (≈ 72.7 µM) | 
4 | CCC1OC(=O)C(C)C(OC2CC(C)(OC)C(O)C(C)O2)C(C)C(OC2OC(C)CC(N(C)C)C2O)C(C)(O)CC(C)CN(C)C(C)C2OC(=O)OC12C (centres unmarked) [Example 42] | 104 (79) % | −27 | 8 | −2% | −8 | 4 (≈ 5.16 µM) | 8-32 | 8-32 | 8-16 | ≤ 0.125 | 1 (≈ 1.29 µM) | > 64 | ≤0.125 | > 64 | ≤0.125 | 8 (≈ 10.3 µM) | 
5 | CC[C@H]1OC(=O)[C@H](C)C(=O)[C@H](C)[C@@H](O[C@@H]2O[C@H](C)C[C@H](N(C)C)[C@H]2O)[C@](C)(OC)C[C@@H](C)C(=O)[C@H](C)[C@H]2N(CCCCn3cnc(-c4cccnc4)c3)C(=O)O[C@]12C [TEL, telithromycin, reference compound] |  |  |  |  |  |  |  |  |  |  |  |  |  |  |  |  | restoration of HDAC activity compared with Example 33 (HDAC activity; PMA-differentiated U937, H2O2 200 μM 4 hrs): only at much higher doses than Example 33; HDAC activity reached compared with untreated controls (HDAC activity; PMA-differentiated U937, H2O2 200 μM, comparators at highest doses tested): only restore HDAC activity to levels comparable to untreated controls; inhibition of Akt phosphorylation compared with Example 33 (Akt): only at much higher concentrations than Example 33; inhibition of LPS-induced IL-8 release compared with Example 33 (IL-8; LPS 100 ng/ml 4 hrs): did not show any inhibition at any concentration tested; IC50 (TNFα; Homo sapiens, U-937, LPS-induced TNFα release, PMA-differentiated U937, NA = inactive): 231 ± 37 µM; inhibition of LPS-induced TNFα release compared with Example 33 (TNFα; LPS 100 ng/ml 4 hrs): at higher concentrations than Example 33
